Results published in article PMC9212739 (Antiviral Research, 2022).
Several values for one entry are separate records, joined by “and”; a condition that tells them apart may be missing. Equal entries are not always repeated. Where two headings read alike, the source gives them in different places.

Key:
LCMV ExoN = LCMV ExoN (Mammarenavirus choriomeningitidis, UniProt P09992); experiment: biochemical; set-up: species or system Lymphocytic Choriomeningitis virus
MACV ExoN = MACV ExoN (Mammarenavirus machupoense, UniProt P26578); experiment: biochemical; set-up: species or system Machupo virus
[1] = biological target: SARS-CoV-2 ExoN nsp14/nsp10 complex (Severe acute respiratory syndrome coronavirus 2, UniProt P0DTD1); experiment: biochemical; settings: read-out: % inhibition of ExoN at 5 μM
LCMV minigenome = type: cell-based
[2] = system: SARS-CoV-2 in VeroE6 TMPRSS2 cells; experiment: microbe, parasite or virus in culture; type: cell-based
[3] = system: LCMV, MACV and SARS-CoV-2 ExoN; type: biochemical
in vitro = settings: african green monkey, veroe6 tmprss2 cells
[4] = read-out: % inhibition of ExoN at 5 μM
[5] = Severe acute respiratory syndrome coronavirus 2, VeroE6/TMPRSS2

LCMV ExoN, sequence (P09992 357-558 limits assumed): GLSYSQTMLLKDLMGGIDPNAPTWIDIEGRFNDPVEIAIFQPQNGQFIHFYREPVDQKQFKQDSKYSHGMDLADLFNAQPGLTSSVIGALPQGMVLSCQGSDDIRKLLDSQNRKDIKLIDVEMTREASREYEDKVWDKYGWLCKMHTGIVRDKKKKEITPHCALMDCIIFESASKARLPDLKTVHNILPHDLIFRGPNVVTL
MACV ExoN, sequence (P26578 355-564 limits assumed): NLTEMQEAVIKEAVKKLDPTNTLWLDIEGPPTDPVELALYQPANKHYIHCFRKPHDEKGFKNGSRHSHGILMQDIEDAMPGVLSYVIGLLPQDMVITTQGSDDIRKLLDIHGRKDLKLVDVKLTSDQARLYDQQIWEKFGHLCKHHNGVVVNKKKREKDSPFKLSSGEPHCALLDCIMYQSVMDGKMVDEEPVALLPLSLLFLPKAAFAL

SMILES | IC50 (LCMV ExoN; IC50) | inhibition at 5 µM (LCMV ExoN; [4]) | IC50 (MACV ExoN; IC50) | inhibition at 5 µM (MACV ExoN; [4]) | inhibition at 5 µM [1] | antiviral effect (LCMV minigenome) | EC50 [2] | EC50 [2, 5] | % inhibition of ExoN at 20 μM, all ExoN [3] | CC50 at 48 h (in vitro)
O=C(O)C1=CC(=C(c2ccc(O)c(C(=O)O)c2)c2ccc(O)c(C(=O)O)c2)C=CC1=O [Compound 40, Aurintricarboxyclic acid] | 7.05 µM and 7.1 µM | 52% | 5.57 µM and 5.6 µM | 39% | 23% | no antiviral effect | 27 µM | 27.2 ± 20.7 µM | 100% | > 50 µM
CCC(CC)COC(=O)[C@H](C)N[P@](=O)(OC[C@H]1O[C@@](C#N)(c2ccc3c(N)ncnn23)[C@H](O)[C@@H]1O)Oc1ccccc1 [Remdesivir] |  |  |  |  |  |  |  | 1.5 ± 1.1 µM |  | 
